Source: publication PMC7848024, “Synthetic Cationic Autoantigen Mimics Glatiramer Acetate Persistence at the Site of Injection and Is Efficacious Against Experimental Autoimmune Encephalomyelitis” (Frontiers in Immunology, 2021)
Entries after “also recorded” stand apart in the source; their conditions may differ.

Key:
[1] = Subcutaneous injection simulation (Scissor): aggregation and release; assay type: physicochemical; details: for formation of visible aggregates in HA: 1 ml of 20 mg/ml injected into 10 mg/ml HA (1.5–1.8 MDa), Scissor cartridge, visual observation
Experimental: The subcutaneous injection simulation was performed using the method previously described ([15]). 1 ml of 20 mg/ml K-PLP in 40 mg/ml mannitol solution was injected into Scissor cartridge containing 10 mg/ml 1.5–1.8 MDa hyaluronic acid (HA). Time points were collected over 3 days and concentration of K-PLP released into the chamber buffer was determined using a bicinchoninic acid assay (Micro BCA protein assay kit, Thermo Scientific, Waltham, MA) by constructing a calibration curve with K-PLP concentrations of 2, 5, 10, 20, 30, and 40 µg/ml. The concentration values were adjusted to account for K-PLP that was taken out during sampling and then converted to percentage of K-PLP released before plotted as a function of time.

[2] = Dynamic light scattering particle sizing; assay type: physicochemical
Experimental: Raman and dynamic light scattering were performed with a Malvern Helix (Malvern Instruments, Malvern, UK). 20 μl of K-PLP at a concentration of 10 mg/ml in 150 mM citrate-phosphate buffer at pH 6 was loaded into a custom steel cuvette with quartz windows. Raman scattering from a 785 nm laser was collected in a backscattering geometry. Samples were measured in triplicate, each replicate consisted of 10 acquisitions of 10 second exposure each. The Zetasizer Helix Analyze software (Malvern Instruments) was used to buffer subtract, normalize to the phenylalanine peak (1003 cm-1), then baseline spectra for analysis. Dynamic light scattering autocorrelation functions were measured with a 632 nm laser with light collected in a 173° angle backscattering geometry. Autocorrelation functions were fit using the method of cumulants.

[3] = system: EAE induced using PLP 139-151; test: In vivo efficacy study, EAE animal model; set-up: species or system SJL/J (H-2) mice
Experimental: In vivo efficacy of K-PLP was assessed using the EAE animal model induced in female 4-6-week old SJL/J (H-2) mice (20–25 g, Envigo, Indianapolis, IN). All protocols were approved through the University’s Institutional Animal Care and Use Committee, and all animals were housed in pathogen-free conditions. EAE induction and treatment schedule were based on methods previously described ([18]–[20]). […]. Additionally, on day 0 each mouse received a 100 μl intraperitoneal injection of pertussis toxin at 100 ng/ml. This administration of pertussis toxin was repeated on day 2. Beginning on day 7, disease severity was monitored daily through the use of a symptom scoring system as follows: 0, no clinical disease symptoms; 1, weakness or limpness of the tail; 2, weakness or partial paralysis of one or two hind limbs (paraparesis); 3, full paralysis of both hind limbs (paraplegia); 4, paraplegia plus weakness or paralysis of forelimbs; 5, moribund (euthanasia necessary). Mouse weight was also recorded daily throughout the study. In vivo treatment groups consisted of 6 mice per group. Treatments were administered in 100 μl SC injections formulated in 40 mg/ml mannitol. Injections were administered between the shoulder blades. Copaxone and K-PLP were administered at 4.5 mg/ml while 9-unit poly-lysine was administered at the molar equivalent to K-PLP injections, resulting in a concentration of 1.7 mg/ml. Treatment injections were performed on days 4, 7, and 10 following EAE induction. Mouse weights were recorded daily beginning on day 0 and clinical scores were recorded daily beginning on day 7. Statistical analysis was performed using two-way analysis of variance (ANOVA) on the clinical scores and weights, one-way ANOVA on the cumulative clinical scores, followed by Turkey comparison tests for all. Statistical significance for all analyses was set at p<0.05. All statistical analyses were performed using GraphPad Software (GraphPad Software Inc.).

[4] = cited from earlier work; for formation of visible aggregates in the presence of HA (literature): in the presence of glycosaminoglycans such as HA
Excerpt: GA consists of a broad population of peptides (average MW 5–9 kDa) comprising four amino acids (AKEY). Lysine is the predominant amino acid at ~34% of the molar mass, which imbues a strong cationic character (pI ~10). […] Approximately 30% of GA remained aggregated after 3 days according to in vitro subcutaneous (SC) injection simulation experiments. […] GEMSP consists of a mixture of fatty acid linked poly-lysine (PLL), antioxidants-PLL, free radical scavengers-PLL, and amino acids-PLL.

footpads of mice = test: In vivo migration imaging: retention at the footpad injection site; details: 10 μl into the footpad, cy7-labeled mixed with unlabeled compound, 20 mg/ml (PLP molar equivalent), dye 25 μM; 1-4 h; near-IR imaging; one mouse per compound
Experimental: Herein, the labeled compounds will be referred to as cy7-GA, cy7-K-PLP, cy7-PEG and cy7-PLP.
Similar imaging method as previously described was used ([15]). Three female SJL/J mice (20-25 g, Envigo, Indianapolis, IN) were used for imaging, one each for K-PLP, PLP, and GA. Unlabeled K-PLP and unlabeled GA were mixed with cy7-K-PLP and cy7-GA, respectively, to a final concentration of 20 mg/ml with the amount of dye normalized to the equivalent of 25 μM of free cyanine 7 dye. Similarly, unlabeled PLP was mixed with cy7-PLP to a concentration that is molar equivalent to 20 mg/ml of K-PLP with the amount of dye normalized to the equivalent of 25 μM of free cyanine 7 dye. Each mouse was injected with 10 μl of their respective treatment at the center of the footpad every hour for 4 h in the following order: left forelimb at the 1-h time point, right forelimb at the 2-h time point, left hindlimb at the 3-h time point, and right hindlimb at the 4-h time point for K-PLP; right forelimb at the 1-h time point, left forelimb at the 2-h time point, right hindlimb at the 3-h time point, and left hindlimb at the 4-h time point for both GA and PLP. […]

Row | Substance | formation of visible aggregates in HA [1] | release rate compared to GA ([1]; Scissor release profile over 3 days, GA profile from ref 15) | remained in the cartridge at the end of the three-day experiment ([1]; Scissor, 20 mg/ml into 10 mg/ml HA, end of 3 days) | plateau of release into the chamber after 2 days ([1]; Scissor, 1 ml of 20 mg/ml in 40 mg/ml mannitol into 10 mg/ml HA, after 2 days, Micro BCA assay) | K-PLP released into the chamber over the first 3 h ([1]; Scissor, 1 ml of 20 mg/ml in 40 mg/ml mannitol into 10 mg/ml HA, first 3 h, Micro BCA assay) | mean size (DLS) ([2]; 10 mg/ml in 150 mM citrate-phosphate buffer pH 6, 632 nm laser, 173° backscattering, method of cumulants, triplicate) | polydispersity (DLS) ([2]; 10 mg/ml in 150 mM citrate-phosphate buffer pH 6, over the temperature ramp) | clinical score ([3]; 100 μl SC in 40 mg/ml mannitol, 4.5 mg/ml, days 4, 7 and 10, scores to day 25, 6 mice per group) | percentage of disease-free mice ([3]; 100 μl SC, days 4, 7 and 10, 6 mice per group) | weight decrease ([3]; 100 μl SC, days 4, 7 and 10, % weight change normalized to day 7, 6 mice per group) | weight loss from day 13 to day 17 (peak disease) ([3]; compared to 9-unit poly-lysine (p<0.0001) and PLP (p<0.01), two-way ANOVA) | cumulative clinical scores, day 0 to day 25 ([3]; one-way ANOVA, 6 mice per group) | formation of visible aggregates in the presence of HA (literature) [4] | remained aggregated after 3 days ([4]; in vitro subcutaneous injection simulation, 3 days) | fluorescence intensity at the footpads over 4 h (footpads of mice) | disease progression compared to the control (mannitol) ([3]; 100 μl SC, days 4, 7 and 10, Copaxone 4.5 mg/ml, 9-unit poly-lysine 1.7 mg/ml, 6 mice per group)
1 | NH2-KKKKKKKKKKK-PEG-PEG-PEG-PEG-HSLGKWLGHPDKF-OH [K-PLP] | visible aggregates were formed immediately | released at a similar rate as GA | approximately 20% | around 80% | approximately 20% | around 2 nm | less than 0.3 | lowest clinical score | highest percentage of disease-free mice | least weight decrease | no significant weight loss | significant improvement over 9-unit poly-lysine, but not PLP |  |  |  | 
2 | glatiramer acetate [GA, reference compound] | Formation of aggregates was observed immediately |  |  |  |  |  |  |  |  |  |  |  | forms large, visible aggregates | Approximately 30% | did not significantly decrease over the course of the experiment | any deviations from the control were not statistically significant; also recorded: did not significantly improve the clinical outcomes
3 | poly-lysine |  |  |  |  |  |  |  |  |  |  |  |  | able to form visible aggregates |  |  | 
